Results published in ChEMBL document CHEMBL5338783, “Discovery of an Anti-TNF-α 9-mer Peptide from a T7 Phage Display Library for the Treatment of Inflammatory Bowel Disease” (J Med Chem, 2023).
The source made the active and inactive calls. The calls are words filed in the database; no cut-off is given here. Peptide text beside a SMILES is read from it.

Columns and labels:
Mus musculus [1] = assay: Anti-colitis activity against DSS-induced acute colitis in C57BL/6 mouse model assessed as reduction in colonic tissue damage at 0.5 to 1 mg/kg, ip daily for 7 days by H and E staining based analysis; type: functional, organism-based; settings: dose 0.5-1 mg/kg, time 7.0 day
BMDM [2] = assay: Antiinflammatory activity in mouse BMDM cells assessed as decrease in LPS-stimulated IL-1beta mRNA level incubated for 3 hrs by RT-qPCR analysis; type: functional, cell-based; settings: dose 25-100 µM
[3] = Toxicity in DSS-induced acute colitis in C57BL/6 mouse model assessed as animal survival at 0.5 to 1 mg/kg, ip daily for 11 days; type: organism-based; settings: in vivo, 264 h, dose 0.5-1 mg/kg, time 11 day
BMDM [4] = assay: Antiinflammatory activity in mouse BMDM cells assessed as decrease in LPS-stimulated TNF-alpha mRNA level incubated for 3 hrs by RT-qPCR analysis; type: functional, cell-based; settings: dose 25-100 µM
Mus musculus [5] = assay: Anti-colitis activity against DSS-induced acute colitis in C57BL/6 mouse model assessed as decrease in disease activity index at 1 mg/kg, ip daily for 7 days; type: functional; settings: time 7 day
Mus musculus [6] = assay: Anti-colitis activity against DSS-induced acute colitis in C57BL/6 mouse model assessed as reduction in colon length at 0.5 to 1 mg/kg, ip daily for 11 days; type: functional, organism-based; settings: dose 0.5-1 mg/kg, time 11.0 day
RAW264.7 [7] = assay: Antiinflammatory activity in mouse RAW264.7 cells assessed as decrease in LPS-stimulated IL-6 mRNA level at 25 to 100 uM incubated for 3 hrs by RT-qPCR analysis; type: functional, cell-based; settings: dose 25-100 µM
RAW264.7 [8] = assay: Antiinflammatory activity in mouse RAW264.7 cells assessed as decrease in LPS-stimulated IFN-gamma mRNA level at 25 to 100 uM incubated for 3 hrs by RT-qPCR analysis; type: functional, cell-based; settings: dose 25-100 µM
RAW264.7 [9] = assay: Antiinflammatory activity in LPS-stimulated mouse RAW264.7 cells assessed as inhibition of ERK1/2 phosphorylation incubated for 3 hrs by Western blot analysis; type: functional, cell-based; settings: dose 25-100 µM
RAW264.7 [10] = assay: Antiinflammatory activity in LPS-stimulated mouse RAW264.7 cells assessed as inhibition of p38 phosphorylation incubated for 3 hrs by Western blot analysis; type: functional, cell-based; settings: dose 25-100 µM
Mus musculus [11] = assay: Anti-colitis activity against DSS-induced acute colitis in C57BL/6 mouse model assessed as decrease in disease activity index at 0.5 to 1 mg/kg, ip daily for 11 days; type: functional, organism-based; settings: dose 0.5-1 mg/kg, time 11.0 day
[12] = biological target: T1, Tumor necrosis factor receptor superfamily member 1B (Homo sapiens) (UniProt P20333); assay: Binding affinity to TNFR2 (unknown origin) at 488.3 to 500 uM incubated for 10 mins by MST assay; settings: dose 488.3-500 µM
T1 sequence (whole entry): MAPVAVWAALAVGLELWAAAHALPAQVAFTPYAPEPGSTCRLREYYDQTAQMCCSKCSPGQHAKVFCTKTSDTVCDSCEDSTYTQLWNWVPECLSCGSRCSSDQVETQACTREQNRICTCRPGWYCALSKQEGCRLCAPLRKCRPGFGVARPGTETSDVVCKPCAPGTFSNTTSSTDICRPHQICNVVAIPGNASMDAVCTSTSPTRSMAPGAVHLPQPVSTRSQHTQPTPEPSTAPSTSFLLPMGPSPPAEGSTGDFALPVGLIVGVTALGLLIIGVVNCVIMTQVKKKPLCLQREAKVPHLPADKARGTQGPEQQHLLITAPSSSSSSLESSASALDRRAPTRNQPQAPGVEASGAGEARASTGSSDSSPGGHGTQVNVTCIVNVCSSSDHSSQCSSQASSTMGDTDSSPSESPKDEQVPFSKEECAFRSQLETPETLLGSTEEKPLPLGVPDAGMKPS

[13] = biological target: T2, Tumor necrosis factor receptor superfamily member 1A (Homo sapiens) (UniProt P19438); assay: Binding affinity to TNFR1 (unknown origin) at 488.3 to 500 uM incubated for 10 mins by MST assay; settings: dose 488.3-500 µM
T2 sequence (whole entry): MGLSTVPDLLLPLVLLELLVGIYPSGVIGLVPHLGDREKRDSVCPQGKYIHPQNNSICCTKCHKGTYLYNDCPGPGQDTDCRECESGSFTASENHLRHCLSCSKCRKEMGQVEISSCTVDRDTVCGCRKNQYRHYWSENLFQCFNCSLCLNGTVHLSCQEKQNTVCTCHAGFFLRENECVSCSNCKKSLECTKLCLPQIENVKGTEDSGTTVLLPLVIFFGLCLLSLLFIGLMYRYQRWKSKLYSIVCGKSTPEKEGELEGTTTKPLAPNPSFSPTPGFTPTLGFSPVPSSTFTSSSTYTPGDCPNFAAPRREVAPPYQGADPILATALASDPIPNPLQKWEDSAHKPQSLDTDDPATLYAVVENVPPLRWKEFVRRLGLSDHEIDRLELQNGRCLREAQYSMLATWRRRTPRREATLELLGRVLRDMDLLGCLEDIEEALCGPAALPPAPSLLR

Mus musculus [14] = assay: Anti-colitis activity against DSS-induced acute colitis in C57BL/6 mouse model assessed as reduction in colon length at 0.5 to 1 mg/kg, ip daily for 7 days; type: functional, organism-based; settings: dose 0.5-1 mg/kg, time 7.0 day
Mus musculus [15] = assay: Anti-colitis activity against DSS-induced acute colitis in C57BL/6 mouse model assessed as decrease in disease activity index at 0.5 to 1 mg/kg, ip daily for 7 days; type: functional, organism-based; settings: dose 0.5-1 mg/kg, time 7.0 day
RAW264.7 [16] = assay: Antiinflammatory activity in mouse RAW264.7 cells assessed as decrease in LPS-stimulated IL-1beta protein expression incubated for 3 hrs by flow cytometry; type: functional, cell-based; settings: dose 25-100 µM
RAW264.7 [17] = assay: Antiinflammatory activity in LPS-stimulated mouse RAW264.7 cells assessed as inhibition of JNK1/2 phosphorylation incubated for 3 hrs by Western blot analysis; type: functional, cell-based; settings: dose 25-100 µM
Mus musculus [18] = assay: Antiinflammatory activity against DSS-induced acute colitis in C57BL/6 mouse model assessed as decrease in JNK1/2 phosphorylation in colon tissue administered intraperitoneally daily for 7 days by Western blot analysis; type: functional, organism-based; settings: dose 0.5-1 mg/kg, route ip, time 7.0 day
RAW264.7 [19] = assay: Cytotoxicity against mouse RAW264.7 cells upto 1000 uM; type: toxicity, cell-based; settings: raw264.7, 1000 µM
Mus musculus [20] = assay: Anti-colitis activity against DSS-induced acute colitis in C57BL/6 mouse model assessed as reversal of body weight loss at 0.5 to 1 mg/kg, ip daily for 11 days; type: functional, organism-based; settings: dose 0.5-1 mg/kg, time 11.0 day
RAW264.7 [21] = assay: Antiinflammatory activity in mouse RAW264.7 cells assessed as decrease in LPS-stimulated TNF-alpha protein expression incubated for 3 hrs by flow cytometry; type: functional, cell-based; settings: dose 25-100 µM
Mus musculus [22] = assay: Anti-colitis activity against DSS-induced acute colitis in C57BL/6 mouse model assessed as increase in spleen index at 0.5 to 1 mg/kg, ip daily for 7 days; type: functional, organism-based; settings: dose 0.5-1 mg/kg, time 7.0 day
Mus musculus [23] = assay: Antiinflammatory activity against DSS-induced acute colitis in C57BL/6 mouse model assessed as decrease in p38 phosphorylation in colon tissue administered intraperitoneally daily for 7 days by Western blot analysis; type: functional, organism-based; settings: dose 0.5-1 mg/kg, route ip, time 7.0 day
BMDM [24] = assay: Antiinflammatory activity in mouse BMDM cells assessed as decrease in LPS-stimulated IFN-alpha mRNA level incubated for 3 hrs by RT-qPCR analysis; type: functional, cell-based; settings: dose 25-100 µM

SMILES: C[C@H](N)C(=O)N[C@@H](CS)C(=O)N[C@@H](Cc1cnc[nH]1)C(=O)N[C@@H](C)C(=O)N[C@@H](Cc1c[nH]c2ccccc12)C(=O)N[C@@H](C)C(=O)N1CCC[C@H]1C(=O)N[C@H](C(=O)N[C@@H](CCCNC(=N)N)C(=O)O)[C@@H](C)O (H-ACHAWAPTR-OH)
- Activity (Mus musculus [1]): Active
- Activity (BMDM [2]): Dose-Dependent Effect
- Activity [3]: Non-Toxic
- Activity (BMDM [4]): Dose-Dependent Effect
- Activity (Mus musculus [5]): -1.25
- Activity (Mus musculus [6]): Active
- Activity (RAW264.7 [7]): Dose-Dependent Effect
- Activity (RAW264.7 [8]): Dose-Dependent Effect
- Activity (RAW264.7 [9]): Dose-Dependent Effect
- Activity (RAW264.7 [10]): Dose-Dependent Effect
- Activity (Mus musculus [11]): Active
- Activity [12]: inactive
- Activity [13]: inactive
- Activity (Mus musculus [14]): Active
- Activity (Mus musculus [15]): Active
- Activity (RAW264.7 [16]): Dose-Dependent Effect
- Activity (RAW264.7 [17]): Dose-Dependent Effect
- Activity (Mus musculus [18]): Dose-Dependent Effect
- Activity (RAW264.7 [19]): Non-Toxic
- Activity (Mus musculus [20]): Active
- Activity (RAW264.7 [21]): Dose-Dependent Effect
- Activity (Mus musculus [22]): Active
- Activity (Mus musculus [23]): Dose-Dependent Effect
- Activity (BMDM [24]): Dose-Dependent Effect
